Experiment [1] deals with T1, human DcpS enzyme (hDcpS) (Homo sapiens, UniProt Q96C86).
T1 construct: made in house
T1 sequence (Q96C86 1-337): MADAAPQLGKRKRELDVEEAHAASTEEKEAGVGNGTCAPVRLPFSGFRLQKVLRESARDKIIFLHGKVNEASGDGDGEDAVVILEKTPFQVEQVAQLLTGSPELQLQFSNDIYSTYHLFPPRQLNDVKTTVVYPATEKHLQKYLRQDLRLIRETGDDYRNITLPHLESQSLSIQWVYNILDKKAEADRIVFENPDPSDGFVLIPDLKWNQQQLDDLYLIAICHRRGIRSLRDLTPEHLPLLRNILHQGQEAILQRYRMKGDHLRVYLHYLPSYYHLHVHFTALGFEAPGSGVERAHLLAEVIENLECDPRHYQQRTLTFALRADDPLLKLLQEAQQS
As to the kind of experiment: Susceptibility of cap analogs to degradation by DcpS enzyme (RP-HPLC). Type of experiment: biochemical. As to conditions: for DcpS susceptibility: cap analog 20 μM, hDcpS 100 nM, RP-HPLC; for hydrolysis by hDcpS: tested as substrates of hDcpS, RP HPLC. As for the experimental part:
Test 1. The Susceptibility Study of Analogs to Degradation by DcpS Enzyme.
The aim of the test was to check if new 5′-thiophosphate cap analogs are hydrolyzed by human DcpS enzyme (hDcpS). Recombinant human protein encoding DcpS enzyme was expressed as described previously (Kowalska, Lewdorowicz et al. 2008). The susceptibility of new analogs to hDcpS hydrolysis is tested in 50 mM Tris-HCl buffer containing 200 mM KCl and 0.5 mM EDTA. Reaction mixture includes the tested cap analog (20 μM) and hDcpS enzyme (100 nM) in 400 μl of buffer. At the appropriate intervals 100 μl sample is collected from the reaction mixture. Sample is incubated at 98° C. for 2.5 min, and then cooled to 0° C. and analyzed on RP-HPLC under conditions described in general informations. In tests also commercially available inhibitor of DcpS was tested, the compound RG3039 (no. 000) (https://www.mda.org/quest/fda-approves-phase-1-clinical-trial-rg3039-sma), GppSG (no. 19), GpppSG (no. 20), as well m^7GpppG (no. 0) and m^7Gpp (no. 00) as controls. Exemplary results obtained are shown on FIG. 5 and Table 5.

The target in the next experiment is T2, hDcpS enzyme (Homo sapiens, UniProt Q96C86).
T2 construct: made in house
T2 sequence (Q96C86 1-337): T1 sequence (Q96C86 1-337)
As to the kind of experiment: IC50 determination for selected inhibitors of DcpS (fluorescence, m^7GMPF probe). In kind it is biochemical. Particulars: m^7GMPF 60 μM, hDcpS 50 nM, tested compound 0-50 μM. How it is done: Test 2. IC50 Determination for Selected Inhibitors
The buffer in this test and in the test 1 is the same. Ten mixture reactions were prepared at the same time and each of them contained a m^7GMPF (60 μM), hDcpS enzyme (50 nM) and the tested compound in concentration range between 0-50 μM in 200 μl of buffer. After appropriate time, when 30% of substrate were converted into product without inhibitor, the reaction was stopped by mixing with 100 μl of ACN. Samples of 25 μl were taken for analysis, followed by mixing with 90 μl of TBDS-fluorescein solution of concentration 2.5 μM in DMSO and incubated for 60 min. Next, 100 μl of 200 mM HEPES buffer pH=7.0 was added to the samples and the fluorescence was measured as described in general information. Based on the results, dependence of inhibitor concentration vs. fluorescence were plotted and the IC50 values were determined by fitting theoretical curve to data.

Entries after “also recorded” stand apart in the source; their conditions may differ.

As to `C[n+]1cn([C@@H]2O[C@H](CSP(=O)([O-])OP(=O)(O)OP(=O)(O)OC[C@H]3O[C@@H](n4cnc5c(=O)[nH]c(N)nc54)C(O)C3O)C(O)C2O)c2nc(N)nc(O)c21` (stereo partly shown) [compound 24], in experiment [1], the DcpS susceptibility result was “resistant/inhibitor” and the “hydrolysis by hDcpS” value is reported as “resistant; also recorded: stability in the presence of DcpS enzyme”. Further, on hDcpS enzyme, the IC50 worked out at 840 ± 70 nM.

Turning to `C[n+]1cn([C@@H]2O[C@H](CSP(=O)(O)OP(=O)([S-])OP(=O)(O)SC[C@H]3O[C@@H](n4cnc5c(=O)[nH]c(N)nc54)C(O)C3O)C(O)C2O)c2nc(N)nc(O)c21` (single isomer, unassigned) [compound 33], in experiment [1], the DcpS susceptibility entry is reported as “resistant/inhibitor” and the “hydrolysis by hDcpS” value was “stability in the presence of DcpS enzyme”. At hDcpS enzyme, this compound showed an IC50 of 260 ± 40 nM.

As for `Nc1nc2c(ncn2[C@@H]2O[C@H](COP(=O)(O)OP(=O)(O)OP(=O)(O)SC[C@H]3O[C@@H](n4cnc5c(=O)[nH]c(N)nc54)[C@H](O)[C@@H]3O)[C@@H](O)[C@H]2O)c(=O)[nH]1` [compound 20], in experiment [1], the DcpS susceptibility entry is “hydrolyzable”. The same compound showed a half-maximal inhibitory concentration (IC50) against hDcpS enzyme greater than 100000 nM.

Regarding `C[n+]1cn([C@@H]2O[C@H](CSP(=O)([O-])OP(=O)(O)OP(=O)(O)SC[C@H]3O[C@@H](n4cnc5c(=O)[nH]c(N)nc54)C(O)C3O)C(O)C2O)c2nc(N)nc(O)c21` (stereo partly shown) [compound 32], in experiment [1], the DcpS susceptibility entry was “resistant/inhibitor” and the “hydrolysis by hDcpS” value is recorded as “stability in the presence of DcpS enzyme”. Half-maximal inhibition at hDcpS enzyme (IC50) was put at 330 ± 90 nM.

On to `C[n+]1cn([C@@H]2O[C@H](CSP(=O)([O-])OP(=O)(O)CP(=O)(O)OC[C@H]3O[C@@H](n4cnc5c(=O)[nH]c(N)nc54)C(O)C3O)C(O)C2O)c2nc(N)nc(O)c21` (stereo partly shown) [compound 25], for which, in experiment [1], the DcpS susceptibility entry is on record as “resistant/inhibitor” and the “hydrolysis by hDcpS” value is listed as “stability in the presence of DcpS enzyme”. The compound also returned an IC50 on hDcpS enzyme of 6250 ± 1220 nM.

For the compound `C[n+]1cn([C@@H]2O[C@H](CSP(=O)(O)OP(=O)([S-])OP(=O)(O)OC[C@H]3O[C@@H](n4cnc5c(=O)[nH]c(N)nc54)C(O)C3O)C(O)C2O)c2nc(N)nc(O)c21` (stereo partly shown) [compound 30], in experiment [1], the DcpS susceptibility result is given as “resistant/inhibitor” and the “hydrolysis by hDcpS” value was “stability in the presence of DcpS enzyme”. At hDcpS enzyme, this compound registered an IC50 of 230 ± 40 nM.

For `C[n+]1cn([C@@H]2O[C@H](CSP(=O)([O-])OP(=O)(O)O)C(O)[C@@H]2O)c2nc(N)nc(O)c21` (stereo partly shown) [compound 12], in experiment [1], the DcpS susceptibility result is “resistant/inhibitor” and the “hydrolysis by hDcpS” value was “stability in the presence of DcpS enzyme”. The same compound returned an IC50 on hDcpS enzyme of 1930 ± 380 nM.

With `C[n+]1cn([C@@H]2O[C@H](COP(=O)(O)OP(=O)(O)O)[C@@H](O)[C@H]2O)c2nc(N)nc([O-])c21` [compound 00], the DcpS susceptibility result in experiment [1] is “resistant/inhibitor”. The concentration for half-maximal inhibition (IC50) on hDcpS enzyme amounted to 4300 ± 780 nM.

The record behind these values is US11066436B2, “5′-phosphorothiolate mRNA 5′-end (cap) analogs, mRNA comprising the same, method of obtaining and uses thereof” (Uniwersytet Warszawski, priority 2016, dated 2021).
